Experiments:
[1] = target: T1, 11β-HSD1 in primary human aortic smooth muscle cells (AoSMC) (Homo sapiens, UniProt P28845); experiment: Human Aortic Smooth Muscle Cell Assay (cortisone to cortisol conversion); assay type: cell-based; settings: AoSMC induced with hTNFα; cortisol measured after 16 hours with cortisone
T1 construct: containing 12 ng/mL hTNFα to induce expression of 11β-HSD1; endogenous in cells; host or cells: primary human aortic smooth muscle cells (AoSMC), induced with hTNFα
Experimental: Human Aortic Smooth Muscle Cell Assay
Primary human aortic smooth muscle cells (AoSMC) are cultured in 5% FBS growth medium to a passage number of 6, then pelleted by centrifugation and resuspended at a density of 9×10^4 cells/mL in 0.5% FBS assay medium containing 12 ng/mL hTNFα to induce expression of 11β-HSD1. Cells are seeded into 96-well tissue culture assay plates at 100 μL/well (9×10^3 cells/well) and incubated for 48 hours at 37° C., 5% CO2. Following induction, cells are incubated for 4 hours at 37° C., 5% CO2 in assay medium containing test compounds then treated with 10 μL/well of 10 μM cortisone solubilized in assay medium, and incubated for 16 hours at 37° C., 5% CO2. Medium from each well is transferred to a plate for subsequent analysis of cortisol using a competitive fluorescence resonance time resolved immunoassay. […] Higher levels of free cortisol result in diminishing energy transfer from the Europium-IgG to the APC-cortisol complex resulting in less APC fluorescence. Fluorescent intensities for Europium and APC are measured using a LJL Analyst AD. Europium and APC […] is measured using 360 nm excitation and 615 nm and 650 nm emission filters respectively. […] Fluorescent intensities measured for APC are modified by dividing by the Eu fluorescence (APC/Eu). […]

[2] = target: recombinant human 11β-HSD type 1 enzyme (Homo sapiens, UniProt P28845); experiment: 11β-HSD Type 1 Enzyme Assay (NADPH fluorescence); assay type: biochemical; settings: three hour incubation at room temperature, read-out: Human 11-βHSD1 IC50
Chain of recombinant human 11β-HSD type 1 enzyme (P28845 whole entry): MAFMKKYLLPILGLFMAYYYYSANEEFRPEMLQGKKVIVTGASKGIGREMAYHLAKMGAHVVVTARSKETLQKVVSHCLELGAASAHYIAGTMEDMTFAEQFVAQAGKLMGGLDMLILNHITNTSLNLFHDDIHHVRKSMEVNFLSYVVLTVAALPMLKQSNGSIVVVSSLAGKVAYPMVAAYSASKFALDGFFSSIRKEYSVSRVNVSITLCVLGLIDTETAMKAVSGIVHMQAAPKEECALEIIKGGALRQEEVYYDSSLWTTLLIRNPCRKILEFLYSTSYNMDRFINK
Experimental: 11β-HSD Type 1 Enzyme Assay
Human 11β-HSD type 1 activity is measured by assaying NADPH production by fluorescence assay. Solid compounds are dissolved in DMSO to a concentration of 10 mM. Twenty microliters of each are then transferred to a column of a 96-well polypropylene Nunc plate where they are further diluted 50-fold followed by subsequent two-fold titration, ten times across the plate with additional DMSO using a Tecan Genesis 200 automated system. Plates are then transferred to a Tecan Freedom 200 system with an attached Tecan Temo 96-well head and an Ultra 384 plate reader. Reagents are supplied in 96-well polypropylene Nunc plates and are dispensed individually into black 96-well Molecular Devices High Efficiency assay plates (40 μL/well capacity) in the following fashion: 9 μL/well of substrate (2.22 mM NADP, 55.5 μM Cortisol, 10 mM Tris, 0.25% Prionex, 0.1% Triton X100), 3 μL/well of water to compound wells or 3 μL to control and standard wells, 6 μL/well recombinant human 11β-HSD type 1 enzyme, 2 μL/well of compound dilutions. For ultimate calculation of percent inhibition, a series of wells are added that represent assay minimum and maximum: one set containing substrate with 667 μM carbenoxolone (background), and another set containing substrate and enzyme without compound (maximum signal). Final DMSO concentration is 0.5% for all compounds, controls and standards. Plates are then placed on a shaker by the robotic arm of the Tecan for 15 seconds before being covered and stacked for a three hour incubation period at room temperature. Upon completion of this incubation, the Tecan robotic arm removes each plate individually from the stacker and places them in position for addition of 5 μL/well of a 250 μM carbenoxolone solution to stop the enzymatic reaction. Plates are then shaken once more for 15 seconds then placed into an Ultra 384 microplate reader (355EX/460EM) for detection of NADPH fluorescence.

[3] = tested on: cortisone conversion to cortisol (11β-HSD1); experiment: Acute In Vivo Cortisone Conversion Assay; design: species or system male C57BL/6 mice; settings: mice, oral dose 10 mg/kg, cortisone challenge s.c. 30 mg/kg, 16 hours post compound dose, serum cortisol
Experimental: Acute In Vivo Cortisone Conversion Assay
In general, compounds are dosed orally into mice, the mice are challenged with a subcutaneous injection of cortisone at a set timepoint after compound injection, and the blood of each animal is collected some time later. Separated serum is then isolated and analyzed for levels of cortisone and cortisol by LC-MS/MS, followed by calculation of mean cortisol and percent inhibition of each dosing group. Specifically, male C57BL/6 mice are obtained from Harlan Sprague Dawley at average weight of 25 grams. Exact weights are taken upon arrival and the mice randomized into groups of similar weights. Compounds are prepared in 1% w-w HEC, 0.25% w-w polysorbate 80, 0.05% w-w Dow Corning antifoam #1510-US at various doses based on assumed average weight of 25 grams. Compounds are dosed orally, 200 μl per animal, followed by a subcutaneous dose, 200 μl per animal, of 30 mg/kg cortisone at 1 to 24 hours post compound dose. At 10 minutes post cortisone challenge, each animal is euthanized for 1 minute in a CO2 chamber, followed by blood collection via cardiac puncture into serum separator tubes. Once fully clotted, tubes are spun at 2500×g, 4° C. for 15 minutes, the serum transferred to wells of 96-well plates (Corning Inc, Costar #4410, cluster tubes, 1.2 ml, polypropylene), and the plates are frozen at −20° C. until analysis by LC-MS/MS. […]

T1 sequence (P28845 whole entry): as above

Row | SMILES | IC50 [1] [nM] | IC50 [2] [nM] | % Inhibition after 16 hours (dose of 10 (mg/kg)) [3] [%]
1 | O=C(c1ccc(-c2cc(Cl)c(C[C@@H]3CCN([C@H]4CC[C@@H](F)CC4)C3=O)c(Cl)c2)cc1)N1CCC(C(F)(F)F)CC1 [Example 9, (R)-3-[3,5-Dichloro-4′-(4-trifluoromethyl-piperidine-1-carbonyl)-biphenyl-4-ylmethyl]-cis-1-(4-fluoro-cyclohexyl)-pyrrolidin-2-one] | 5.5 | 584 | –
2 | O=C(c1ccc(-c2cc(Cl)c(C[C@@H]3CCN(C4CCC(F)(F)CC4)C3=O)c(Cl)c2)cc1)N1CCC(C(F)(F)F)CC1 [Example 3, (R)-3-[3,5-Dichloro-4′-(4-trifluoromethyl-piperidine-1-carbonyl)-biphenyl-4-ylmethyl]-1-(4,4-difluoro-cyclohexyl)-pyrrolidin-2-one] | 55.1 | 686 | 60.7
3 | O=C(c1ccc(-c2cc(Cl)c(C[C@@H]3CCN(C4CCC(F)(F)CC4)C3=O)c(Cl)c2)cc1)N1CCS(=O)(=O)CC1 [Example 4, (R)-3-[3,5-Dichloro-4′-(1,1-dioxo-1lamda*6*-thiomorpholine-4-carbonyl)-biphenyl-4-ylmethyl]-1-(4,4-difluoro-cyclohexyl)-pyrrolidin-2-one] | – | 382 | 50.2

From US7816349B2, “Substituted pyrrolidinones as inhibitors of 11-beta-hydroxysteroid dehydrogenase 1” (Eli Lilly and Company, priority 2006, dated 2010)
